{"source": "patent US20220202720A1", "about": "“SUSTAINED RELEASE C[…] AND METHOD OF PREPARATION THEREOF” (PHARMATHEN S.A., priority 2019, published 2022)", "origin": "cited, not measured here", "target": "recombinant μ-opioid receptor (Homo sapiens, UniProt P35372)", "sequence (P35372 whole entry, species assumed)": "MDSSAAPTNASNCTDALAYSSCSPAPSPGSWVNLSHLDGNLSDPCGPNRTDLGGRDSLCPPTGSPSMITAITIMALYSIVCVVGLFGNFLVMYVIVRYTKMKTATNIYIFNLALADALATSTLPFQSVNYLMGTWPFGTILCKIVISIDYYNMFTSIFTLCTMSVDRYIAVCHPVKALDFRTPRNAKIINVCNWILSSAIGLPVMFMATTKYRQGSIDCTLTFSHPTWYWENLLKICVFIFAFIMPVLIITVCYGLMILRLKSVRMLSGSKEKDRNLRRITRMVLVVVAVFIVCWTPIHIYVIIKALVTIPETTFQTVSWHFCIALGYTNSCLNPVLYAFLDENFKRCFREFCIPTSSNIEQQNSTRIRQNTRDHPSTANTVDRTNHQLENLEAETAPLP"}
{"smiles": "CC[C@@H](c1cccc(O)c1)[C@@H](C)CN(C)C", "note": "[Tapentadol]", "values": [{"measurement": "reduced affinity to recombinant μ-opioid receptor compared to morphine", "value": 18, "unit": "times"}]}
